{"source": "paper PMC7822874", "about": "“Chemoprotective antimalarials identified through quantitative high-throughput screening of Plasmodium blood and liver stage parasites” (Scientific Reports, 2021)", "key": {"in vitro [1]": {"experiment": "in vitro", "settings": "human, HepG2 cells; n = 1"}, "[2]": {"tested_on": "Plasmodium falciparum Dd2 asexual blood stage parasites", "experiment": "microbe, parasite or virus in culture", "design": "species or system Plasmodium falciparum Dd2 in human erythrocytes; single determination (one 11-point concentration-response curve)", "settings": "Plasmodium falciparum, DD2, Erythrocyte, 72 h; read-out: AC50"}, "HepG2-A16-CD81EGFP cells": {"tested_on": "HepG2-A16-CD81EGFP cells", "settings": "average of 2 wells; for HepG2 1uM growth rep1 / HepG2 1uM growth rep2: HepG2, 1 µM compound treatment (10 mM stocks); for HepG2 1uM growth rep1 / HepG2 3uM growth rep1: replicate 1, normalized; for HepG2 1uM growth rep2 / HepG2 3uM growth rep2: replicate 2, normalized; for HepG2 3uM growth rep1 / HepG2 3uM growth rep2: HepG2, 3 µM compound treatment (10 mM stocks)"}, "[3]": {"tested_on": "P. berghei-ANKA-GFP-LucCON liver stage parasites in HepG2-A16-CD81EGFP cells", "experiment": "P. berghei liver stage Pb-Luc assay, Method 1 (UCSD, 1536-well)", "type": "cell-based, Plasmodium berghei", "settings": "Plasmodium berghei, 48 h, average of 2 wells on a 1536 well plate"}, "[4]": {"tested_on": "luciferase-expressing P. berghei liver stage parasites in HepG2 cells", "experiment": "Inhibition of liver-stage development assay (ILSDA), Method 2 (WRAIR, 96-well)", "type": "cell-based, Plasmodium berghei", "settings": "for Max Resp (signal direction of the dose response): Method 2, Decrease = decreasing P. berghei viability with dose, Increase = increasing signal, Inactive = no dose response; for AC50: Plasmodium berghei, HepG2, Method 2"}, "in vitro [5]": {"experiment": "in vitro", "settings": "human, HepG2-A16-CD81EGFP cells, uninfected"}, "[6]": {"tested_on": "T1, Plasmodium falciparum Dd2-attB-ScDHODH (transgenic line expressing yeast DHODH), asexual blood stages", "T1 construct": "Dd2-attB-ScDHODH, the transgenic line that expresses yeast DHODH", "experiment": "organism not typed", "design": "replicate k of 3 (each line is one of three independent assays; the three lines of one compound and parasite line follow each other)", "settings": "72 h, n = 1", "method_in_brief": "(§1)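 Both lines were tested side by side with selected compounds, repeated in three independent assays. Differences between parental and ScDHODH-expressing parasites were then assessed with a two-sided Student's t-test.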"}, "[7]": {"tested_on": "T2, Plasmodium falciparum Dd2-attB (parental line), asexual blood stages", "T2 construct": "Dd2-attB, the isogenic parental line", "experiment": "microbe, parasite or virus in culture", "design": "replicate k of 3 (each line is one of three independent assays; the three lines of one compound and parasite line follow each other)", "settings": "n = 1", "method_in_brief": "as §1"}, "[8]": {"settings": "P. berghei liver stage, 1 µM compound treatment (10 mM stocks), replicate 1, normalized, read-out: PbLuc 1uM growth rep1"}, "[9]": {"settings": "P. berghei liver stage, 1 µM compound treatment (10 mM stocks), replicate 2, normalized, read-out: PbLuc 1uM growth rep2"}, "[10]": {"settings": "P. berghei liver stage, 3 µM compound treatment (10 mM stocks), replicate 1, normalized, read-out: PbLuc 3uM growth rep1"}, "[11]": {"settings": "P. berghei liver stage, 3 µM compound treatment (10 mM stocks), replicate 2, normalized, read-out: PbLuc 3uM growth rep2"}, "[12]": {"settings": "Hill fit, 50% of maximum activity response, read-out: AC50"}, "[13]": {"settings": "log10 of molar AC50 from Hill fit, read-out: Log AC50 (converted)"}}, "note": "“And” between values parts separate entries of the source, which are not always exact repeats. Equal entries are not always repeated. Where two headings read alike, the source gives them in different places."}
{"smiles": "O=C(CCl)Nc1cccc(-c2cnc3ccccc3n2)c1", "note": "[MLS000541295-01]", "values": [{"measurement": "CC50 at 48 h", "setting": "in vitro [1]", "result": 13.7, "unit": "µM"}, {"measurement": "AC50", "setting": "[2]", "result": 6.68, "unit": "µM"}, {"measurement": "HepG2 1uM growth rep1", "setting": "HepG2-A16-CD81EGFP cells", "result": 90, "unit": "%"}, {"measurement": "HepG2 1uM growth rep2", "setting": "HepG2-A16-CD81EGFP cells", "result": 88, "unit": "%"}, {"measurement": "HepG2 3uM growth rep1", "setting": "HepG2-A16-CD81EGFP cells", "result": 89, "unit": "%"}, {"measurement": "HepG2 3uM growth rep2", "setting": "HepG2-A16-CD81EGFP cells", "result": 88, "unit": "%"}, {"measurement": "activity at 1 µM", "setting": "[3]; [8]", "result": 128, "unit": "%"}, {"measurement": "activity at 1 µM", "setting": "[3]; [9]", "result": 119, "unit": "%"}, {"measurement": "activity at 3 µM", "setting": "[3]; [10]", "result": 151, "unit": "%"}, {"measurement": "activity at 3 µM", "setting": "[3]; [11]", "result": 185, "unit": "%"}]}
{"smiles": "O=C(NC(c1ccccc1)c1cc(Cl)c2cccnc2c1O)c1cccnc1", "note": "(centres unmarked) [MLS000573359-01]", "values": [{"measurement": "CC50 at 48 h", "setting": "in vitro [1]", "result": 13.7, "unit": "µM"}, {"measurement": "AC50", "setting": "[2]", "result": 7.5, "unit": "µM"}, {"measurement": "Max Resp (signal direction of the dose response)", "setting": "[4]", "result": "Decrease"}, {"measurement": "AC50", "setting": "[4]; [12]", "result": 1.12, "unit": "µM"}, {"measurement": "AC50", "setting": "[4]; [13]", "result": 1.12, "unit": "µM"}, {"measurement": "viability at 48 h, 1 µM", "setting": "in vitro [5]", "result": 119, "unit": "%"}, {"measurement": "viability at 48 h, 3 µM", "setting": "in vitro [5]", "result": 66, "unit": "%"}]}
{"smiles": "Oc1c(C(Nc2nccs2)c2ccc(C(F)(F)F)cc2)ccc2cccnc12", "note": "(centres unmarked) [MLS000774842-01]", "values": [{"measurement": "CC50 at 48 h", "setting": "in vitro [1]", "result": 15.3, "unit": "µM"}, {"measurement": "AC50", "setting": "[2]", "result": 5.31, "unit": "µM"}, {"measurement": "Max Resp (signal direction of the dose response)", "setting": "[4]", "result": "Decrease"}, {"measurement": "AC50", "setting": "[4]; [12]", "result": 0.282, "unit": "µM"}, {"measurement": "AC50", "setting": "[4]; [13]", "result": 0.282, "unit": "µM"}]}
{"smiles": "O=C(Nc1ncccc1O)c1ccc(NS(=O)(=O)c2ccc3[nH]c(=O)[nH]c3c2)cc1", "note": "[MLS001138628-01]", "values": [{"measurement": "CC50 at 48 h", "setting": "in vitro [1]", "result": 21.7, "unit": "µM"}, {"measurement": "AC50", "setting": "[2]", "result": 0.422, "unit": "µM"}, {"measurement": "HepG2 1uM growth rep1", "setting": "HepG2-A16-CD81EGFP cells", "result": 110, "unit": "%"}, {"measurement": "HepG2 1uM growth rep2", "setting": "HepG2-A16-CD81EGFP cells", "result": 100, "unit": "%"}, {"measurement": "HepG2 3uM growth rep1", "setting": "HepG2-A16-CD81EGFP cells", "result": 89, "unit": "%"}, {"measurement": "HepG2 3uM growth rep2", "setting": "HepG2-A16-CD81EGFP cells", "result": 93, "unit": "%"}, {"measurement": "activity at 1 µM", "setting": "[3]; [8]", "result": 61, "unit": "%"}, {"measurement": "activity at 1 µM", "setting": "[3]; [9]", "result": 57, "unit": "%"}, {"measurement": "activity at 3 µM", "setting": "[3]; [10]", "result": 21, "unit": "%"}, {"measurement": "activity at 3 µM", "setting": "[3]; [11]", "result": 25, "unit": "%"}]}
{"smiles": "O=C(Nc1ccccc1O)c1ccc(NC(=O)C2CC2)cc1", "note": "[MLS001162082-01]", "values": [{"measurement": "CC50 at 48 h", "setting": "in vitro [1]", "result": 10.9, "unit": "µM"}, {"measurement": "AC50", "setting": "[2]", "result": 4.73, "unit": "µM"}, {"measurement": "activity at 1 µM", "setting": "[3]; 1 uM (compounds provided at 10 mM), column 11, read-out: Pb-Luc (P. berghei liver stage), % of control, lower concentration, first repeat", "result": 40, "unit": "%"}, {"measurement": "activity at 1 µM", "setting": "[3]; 1 uM (compounds provided at 10 mM), column 12, read-out: Pb-Luc (P. berghei liver stage), % of control, lower concentration, second repeat", "result": 37, "unit": "%"}, {"measurement": "activity at 3 µM", "setting": "[3]; 3 uM (compounds provided at 10 mM), column 8, read-out: Pb-Luc (P. berghei liver stage), % of control, higher concentration, first repeat", "result": 10, "unit": "%"}, {"measurement": "activity at 3 µM", "setting": "[3]; 3 uM (compounds provided at 10 mM), column 9, read-out: Pb-Luc (P. berghei liver stage), % of control, higher concentration, second repeat", "result": 10, "unit": "%"}, {"measurement": "Max Resp (signal direction of the dose response)", "setting": "[4]", "result": "Decrease"}, {"measurement": "AC50", "setting": "[4]; [12]", "result": 2.24, "unit": "µM"}, {"measurement": "AC50", "setting": "[4]; [13]", "result": 2.24, "unit": "µM"}, {"measurement": "viability at 48 h, 1 µM", "setting": "in vitro [5]", "result": 114, "unit": "%"}, {"measurement": "viability at 48 h, 3 µM", "setting": "in vitro [5]", "result": 108, "unit": "%"}]}
{"smiles": "O=C(N/N=C(/c1ccccc1)c1cccnc1)c1cccc(F)c1", "note": "[MLS001224623-01]", "values": [{"measurement": "CC50 at 48 h", "setting": "in vitro [1]", "result": 12.2, "unit": "µM"}, {"measurement": "AC50", "setting": "[2]", "result": 4.22, "unit": "µM"}, {"measurement": "HepG2 1uM growth rep1", "setting": "HepG2-A16-CD81EGFP cells", "result": 68, "unit": "%"}, {"measurement": "HepG2 1uM growth rep2", "setting": "HepG2-A16-CD81EGFP cells", "result": 59, "unit": "%"}, {"measurement": "HepG2 3uM growth rep1", "setting": "HepG2-A16-CD81EGFP cells", "result": 30, "unit": "%"}, {"measurement": "HepG2 3uM growth rep2", "setting": "HepG2-A16-CD81EGFP cells", "result": 34, "unit": "%"}, {"measurement": "activity at 1 µM", "setting": "[3]; [8]", "result": 10, "unit": "%"}, {"measurement": "activity at 1 µM", "setting": "[3]; [9]", "result": 9, "unit": "%"}, {"measurement": "activity at 3 µM", "setting": "[3]; [10]", "result": 6.61, "unit": "%"}, {"measurement": "activity at 3 µM", "setting": "[3]; [11]", "result": 8, "unit": "%"}]}
{"smiles": "Oc1c(CN2CCCCC2)cc(COCc2ccccc2)c2cccnc12", "note": "[NCGC00052274-02]", "values": [{"measurement": "CC50 at 48 h", "setting": "in vitro [1]", "result": 6.85, "unit": "µM"}, {"measurement": "AC50", "setting": "[2]", "result": 8.41, "unit": "µM"}, {"measurement": "Individual replicates / Log AC50 (M)", "setting": "[6]", "result": "-5.4986 Log AC50 (M)"}, {"measurement": "AC50", "setting": "[6]; read-out: Individual replicates / Log AC50 (converted)", "result": 5.03, "unit": "µM"}, {"measurement": "Individual replicates / Log AC50 (M)", "setting": "[7]; 72 h", "result": "-5.4486 Log AC50 (M) and -5.3486 Log AC50 (M)"}, {"measurement": "AC50", "setting": "[7]; Plasmodium falciparum, DD2, 72 h, read-out: Individual replicates / Log AC50 (converted)", "result": 5.64, "unit": "µM"}]}
